The values that follow come from US6344456B1, “Piperazinone derivatives and their uses” (Laboratoire L. Lafon, priority 1998, dated 2002).

Structures can show the parent of a compound that is named as a salt. Where two headings read alike, the source gives them in different places. Bounds are passed on as bounds.

As usually defined, the IC50 is the concentration that inhibits the measured activity by half.

One assay deals with Guinea Pig Platelets. As to the kind of experiment: In vitro inhibition of collagen-induced platelet aggregation, guinea pig platelet-rich plasma. The note with it: guinea pig PRP, collagen 1 μg/ml, 3 minutes of contact at 37° C. The assay is classed as cell-based. Here is the method:
(§1) A study of the inhibitory activity of the compounds of formula I on platelet aggregation was carried out in vitro, i.e. by direct contact of solutions of variable concentrations of the compounds with platelets freshly separated from a sample of whole blood, taken under standardized conditions, from laboratory animals (guinea pigs) and from healthy human subjects who have not received any substances or drugs that might interfere with blood clotting. The anti-platelet-aggregating activity was also studied ex vivo/vitro, i.e. after administration of the substances claimed in guinea pigs to measure the intensity and duration of the anti-aggregating action induced by the fraction of the test product absorbed and circulating in the blood.
1.1. Studies on Guinea Pig Platelets
Blood is taken by intracardiac puncture from male Dunkin-Hartley guinea pigs (weighing about 330 g), at a rate of 4.5 ml per 0.5 ml of trisodium citrate (concentration of the aqueous solution: 1.55%) in order to prevent all trace of clotting. The platelet-rich plasma (PRP) is obtained by centrifuging the tubes of whole blood for 15 minutes at 150 g.
The PRPs are collected as. “pools”. The platelets contained in these pools are counted using a Coulter ZM haematology automatic device: if necessary, a dilution is carried out in order for the platelet concentration in the plasma to be between 200,000 and 400,000 platelets/mm^3. Simultaneously, other samples of these pools serve to prepare the platelet-poor plasma (PPP) by centrifugation at 1,500 g for 15 minutes.
The kinetic study of the platelet aggregation is carried out by adding a collagen solution (1 μg/ml) to a volume of PRP, using a Chrono-log Corporation aggregometer (490-D1 or 560 VS) which uses an optical detection of the appearance of the thrombus.
The measurements of the aggregation inhibition are carried out after 3 minutes of contact at 37° C. with agitation.

The next assay concerns Human Platelets. Kind of assay: In vitro inhibition of collagen-induced platelet aggregation, human platelet-rich plasma. The class given is cell-based. The note with it: human PRP, collagen 5 μg/ml, 3 minutes of contact at 37° C., read-out: IC50 (M) in vitro Man. The procedure:
A study of the inhibitory activity of the compounds of formula I on platelet aggregation was carried out in vitro, i.e. by direct contact of solutions of variable concentrations of the compounds with platelets freshly separated from a sample of whole blood, taken under standardized conditions, from laboratory animals (guinea pigs) and from healthy human subjects who have not received any substances or drugs that might interfere with blood clotting. The anti-platelet-aggregating activity was also studied ex vivo/vitro, i.e. after administration of the substances claimed in guinea pigs to measure the intensity and duration of the anti-aggregating action induced by the fraction of the test product absorbed and circulating in the blood. 1.2 Study on Human Platelets Venous blood is taken from a group of ten healthy human subjects of the same age, by puncture into a vein of the fold of the elbow and is collected in a glass tube containing aqueous 0.129 M sodium citrate solution (1 volume of citrate solution per 9 volumes of blood). Each tube is then centrifuged a first time at 20° C. and 100 g for 15 minutes in order to obtain the platelet-rich plasma (PRP); after removing this PRP, the tube is again centrifuged at 2,000 g for 15 minutes in order this time to remove the platelet-poor plasma (PPP). For each identified sample of PRP, the platelets are counted using a Coulter ZM counter. […] A control test intended to check the possible effect of the solvents (reference value) on the platelet aggregation is introduced into each measurement series, and is measured after 3 minutes of contact at 37° C. with agitation.

In assay [1] the test system is platelet aggregation induced by collagen. As to the kind of experiment: Ex vivo/vitro anti-platelet-aggregating activity in guinea pigs after gastric administration. To be noted: for % of g.r. inhibition guinea pig ex vivo d = 150 mg/kg −1 h: administered 1 h before blood is taken; for % of g.r. inhibition guinea pig ex vivo d = 150 mg/kg −2 h: administered 2 h before blood is taken; for anti-aggregating action ex-vivo in guinea pigs, oral dose 10 mg/kg, 1h: administered 1h before the aggregation test. Also on record: species or system guinea pig. Here is the method:
as §1
2. ex vivo/vitro Pharmacological Study in Guinea Pigs
Evaluation of the anti-platelet-aggregating activity of the compounds is carried out in the same guinea pigs as those mentioned above (Dunkin-Hartley strain). The administration of each product in a range of doses from 150 mg/kg to 10 mg/kg and of each vehicle (5 ml/kg) is carried out via the gastric route (g.r.) 1h or 2h or 4h or 6h or 8h or 12h before blood is taken from the guinea pigs fasted the day before. The allocation of the treatments to the animals is random.
The blood is taken and then treated under the same conditions as those described above for the in vitro studies.
The results of the inhibition of the platelet aggregation obtained for each test concentration make it possible to calculate the IC50 concentration of each test product and the kinetics of the inhibitory effect and its duration of action.

[2] abbreviates: Cavia porcellus, Platelet, 0.05 h.

As for “3-{[2-(4-{4-[amino(imino)methyl]phenyl}-2-oxopiperazino)acetyl]amino}-3-(pyridyl)propanoic acid acetate [Example 21]”, in the assay with Guinea Pig Platelets, the IC50 stood at 0.16 µM. For the same compound, in the assay on Human Platelets, the IC50 worked out at 8.6e-07 M. Also, in assay [1], the “% of g.r. inhibition guinea pig ex vivo d = 150 mg/kg −1 h” value is given as −78% and the “% of g.r. inhibition guinea pig ex vivo d = 150 mg/kg −2 h” value is reported as −79%.

With `CCOC(=O)CCNC(=O)CN1CCN(c2ccc(C(N)=NO)cc2)CC1=O` [Example 1, Ethyl 3-{[12-(4-{4-[amino(hydroxyimino)methyl]phenyl}-2-oxopiperazino)acetyl]amino}propanoate], in the assay with Guinea Pig Platelets, the IC50 was over 1000 µM. In assay [1], the “% of g.r. inhibition guinea pig ex vivo d = 150 mg/kg −1 h” value is −72% and the “% of g.r. inhibition guinea pig ex vivo d = 150 mg/kg −2 h” value is −73%.

For the compound `CCOC(=O)CC(NC(=O)CN1CCN(c2ccc(C(N)=NO)cc2)CC1=O)c1ccc2c(c1)OCO2` (stereo not drawn) [Example 3, Ethyl 3-{[2-(4-{4-[amino(hydroxyimino)methyl]phenyl}-2-oxopiperazino)acetyl]amino}-3-(1,3-benzodioxol-5-yl)propanoate], in assay [1] (10 mg/kg), the “anti-aggregating action ex-vivo in guinea pigs, oral dose 10 mg/kg, 1h” value is 69%. Besides, in assay [1] (10 mg/kg, administered 2h before the aggregation test), the “anti-aggregating action ex-vivo in guinea pigs, oral dose 10 mg/kg, 2h” value came to 72%. Further, in assay [1], the “% of g.r. inhibition guinea pig ex vivo d = 150 mg/kg −1 h” value is −72% and the “% of g.r. inhibition guinea pig ex vivo d = 150 mg/kg −2 h” value was −69%.

In the case of `CCOC(=O)CC(CCc1ccccc1)NC(=O)CN1CCN(c2ccc(C(N)=NO)cc2)CC1=O` (stereo not drawn) [Example 7, Ethyl 3-{[2-(4-{4-[amino(hydroxyimino)methyl]phenyl}-2-oxopiperazino)acetyl]amino}-5-phenylpentanoate], the “anti-aggregating action ex-vivo in guinea pigs, oral dose 10 mg/kg, 1h” value in assay [1] (10 mg/kg) is recorded as 72%.

For `CC(=O)O.CCOC(=O)CCNC(=O)CN1CCN(c2ccc(C(=N)N)cc2)CC1=O` [Example 16, Ethyl 3-{[2-(4-{4-[amino(imino)methyl]phenyl}-2-oxopiperazino)acetyl]amino}proanoate acetate], half-maximal inhibition with Guinea Pig Platelets (IC50) was put at 3.8 µM. In assay [1], the “% of g.r. inhibition guinea pig ex vivo d = 150 mg/kg −1 h” value is recorded as −75% and the “% of g.r. inhibition guinea pig ex vivo d = 150 mg/kg −2 h” value is listed as −73%.

Regarding `Cl.N=C(N)c1ccc(N2CCN(CC(=O)NCCC(=O)O)C(=O)C2)cc1` [Example 17, 3-{[2-(4-{4-[amino(imino)methyl]phenyl}-2-oxopiperazino)acetyl]amino}propanoic acid hydrochloride], the IC50 was 4.8 µM in the assay on Guinea Pig Platelets (setting [2]) and 5.2e-06 M with Human Platelets (Platelet, 0.05 h). In addition, in assay [1], the “% of g.r. inhibition guinea pig ex vivo d = 150 mg/kg −1 h” value was −43%. Moreover, in assay [1], the “% of g.r. inhibition guinea pig ex vivo d = 150 mg/kg −2 h” value was −38%.

Consider `CC(=O)O.CCOC(=O)CC(NC(=O)CN1CCN(c2ccc(C(=N)N)cc2)CC1=O)c1ccc2c(c1)OCO2` (stereo not drawn) [Example 18, Ethyl 3-{[2-(4-{4-[amino(imino)methyl]phenyl}-2-oxopiperazino)acetyl]amino}-3-(1,3-benzodioxol-5-yl)propanoate acetate], for which the half-maximal inhibitory concentration (IC50) in the assay on Guinea Pig Platelets (setting [2]) came to 0.2 µM. Also, the IC50 in the assay with Human Platelets (Platelet, 0.05 h) was found to be 8.1e-05 M. In assay [1], the “% of g.r. inhibition guinea pig ex vivo d = 150 mg/kg −1 h” value is reported as −70% and the “% of g.r. inhibition guinea pig ex vivo d = 150 mg/kg −2 h” value was −69%.

On to `CCOC(=O)CC(CCc1ccccc1)NC(=O)CN1CCN(c2ccc(C(=N)N)cc2)CC1=O` (stereo not drawn) [Example 22, Ethyl 3-{[2-(4-{4-[amino(imino)methyl]phenyl}-2-oxopiperazino)acetyl]amino}-5-phenylpentanoate acetate], for which the IC50 came out at 0.51 µM in the assay with Guinea Pig Platelets (setting [2]) and 7.1e-05 M with Human Platelets (Platelet, 0.05 h).

As to `CCOC(=O)CC(NC(=O)CN1CCN(c2ccc(C(=N)N)cc2)CC1=O)C1CCCCC1` (stereo not drawn) [Example 23, Ethyl 3-{[2-(4-{4-[amino(imino)methyl]phenyl}-2-oxopiperazino)acetyl]amino}-3-cyclohexylpropanoate acetate], it took 46 µM to reach half-maximal inhibition in the assay with Guinea Pig Platelets (setting [2]) (IC50).

`CCOC(=O)CC(CC(C)C)NC(=O)CN1CCN(c2ccc(C(=N)N)cc2)CC1=O` (stereo not drawn) [Example 24, Ethyl 3-{[2-(4-{4-[amino(imino)methyl]phenyl}-2-oxopiperazino)acetyl]amino}-5-methylhexanoate acetate] had an IC50 with Guinea Pig Platelets (setting [2]) of 4.6 µM.

In the assay on Guinea Pig Platelets (setting [2]), `CCOC(=O)CC(NC(=O)CN1CCN(c2ccc(C(=N)N)cc2)CC1=O)C(C)(C)C` (stereo not drawn) [Example 25, Ethyl 3-{[2-(4-{4-[amino(imino)methyl]phenyl}-2-oxopiperazino)acetyl]amino}-4,4-dimethylpentanoate acetate] had an IC50 of 440 µM.

In the assay on Guinea Pig Platelets (setting [2]), `CCOC(=O)CC(NC(=O)CN1CCN(c2ccc(C(=N)N)cc2)CC1=O)C(C)C` (stereo not drawn) [Example 26, Ethyl 3-{[2-(4-{4-[amino(imino)methyl]phenyl}-2-oxopiperazino)acetyl]amino}-4-methylpentanoate acetate] returned an IC50 of 4.5 µM.

`CC(=O)O.CCOC(=O)CCNC(=O)CN1CCN(c2ccc(C(=N)N)cc2)C(=O)C1` [Example 27, Ethyl 3-{[2-(4-{4-[amino(imino)methyl]phenyl}-3-oxopiperazino)acetyl]amino}propanoate acetate]: the IC50 with Guinea Pig Platelets (setting [2]) worked out at 38 µM. Further, in assay [1], the “% of g.r. inhibition guinea pig ex vivo d = 150 mg/kg −1 h” value was −8% and the “% of g.r. inhibition guinea pig ex vivo d = 150 mg/kg −2 h” value was −9%.

On to `CCOC(=O)CC(CCc1ccccc1)NC(=O)CN1CCN(c2ccc(C(=N)N3CCCCC3)cc2)CC1=O` (stereo not drawn) [Example 32, Ethyl 3-{[2-(4-{4-[imino(piperidino)methyl]phenyl}-2-oxopiperazino)acetyl]amino}-5-phenylpentanoate], for which it took 2.4 µM to reach half-maximal inhibition in the assay with Guinea Pig Platelets (setting [2]) (IC50).

As to `CCOC(=O)CC(CCc1ccccc1)NC(=O)CN1CCN(c2ccc(C(=N)N3CCOCC3)cc2)CC1=O` (stereo not drawn) [Example 33, Ethyl 3-{[2-{4-{4-[imino(morpholino)methyl]phenyl}-2-oxopiperazino)acetyl]amino)-5-phenylpentanoate], in the assay with Guinea Pig Platelets (setting [2]), the IC50 was 0.65 µM.

In the case of `CCOC(=O)CC(NC(=O)CN1CCN(c2ccc(C(=N)N3CCCCC3)cc2)CC1=O)c1ccc2c(c1)OCO2` (stereo not drawn) [Example 34, Ethyl 3-(1,3-benzodioxol-5-yl)-3-{[2-(4-{4-[imino(piperidino)methyl]phenyl}-2-oxopiperazino)-acetyl]amino}propanoate hydrochloride], the IC50 with Guinea Pig Platelets (setting [2]) worked out at 0.99 µM.

In the assay on Guinea Pig Platelets (setting [2]), `CCOC(=O)CC(NC(=O)CN1CCN(c2ccc(C(=N)N3CCOCC3)cc2)CC1=O)c1ccc2c(c1)OCO2` (stereo not drawn) [Example 35, Ethyl 3-(1,3-benzodioxol-5-yl)-3-{[2-(4-{4-[imino-(morpholino)methyl]phenyl}-2-oxopiperazino)acetyl]-amino}propanoate hydrochloride] gave a half-inhibitory concentration (IC50) of 0.47 µM.

“Ethyl 3-{[2-(4-{4-[amino(hydroxyimino)methyl]phenyl}-2-oxopiperazino)acetyl]amino}-3-(pyridyl)propanoate [Example 5]” returned an IC50 in the assay on Guinea Pig Platelets of 100 µM. In addition, in assay [1], the “% of g.r. inhibition guinea pig ex vivo d = 150 mg/kg −1 h” value is recorded as −72% and the “% of g.r. inhibition guinea pig ex vivo d = 150 mg/kg −2 h” value is −75%.
